Measurements reported in paper PMC11855827, “High-Throughput Screening of Five Compound Libraries for Anthelmintic Activity and Toxicity Leads to the Discovery of Two Flavonoid Compounds” (International Journal of Molecular Sciences, 2025).
Values joined by “and” are separate entries in the source; they are usually repeats but may differ in a detail not shown here. Equal entries are not always repeated. Where two headings read alike, the source gives them in different places.

System: C. elegans
[1] = Table S2, C. elegans SS assay, 110 μM, 0 h, averages of 4 data points
[2] = Table S2, C. elegans SS assay, 110 μM, 24 h, averages of 4 data points

CC1(C)[C@@H](O)CC[C@]2(C)[C@H]3CC=C4[C@@H]5C[C@@]6(C)C[C@H](OC6=O)[C@]5(C)CC[C@@]4(C)[C@]3(C)CC[C@@H]12 [Wilforlide A]
Percentage of motility inhibition 0 h [1]: 7% | Percentage of motility inhibition 24 h [2]: 3%

COc1c(O[C@@H]2O[C@H](C(=O)O)[C@@H](O)[C@H](O)[C@H]2O)cc(O)c2c(=O)cc(-c3ccccc3)oc12 [Wogonoside]
Percentage of motility inhibition 0 h [1]: 6% | Percentage of motility inhibition 24 h [2]: 2%

Cc1ccc(NC(=O)C(=O)NC2CC(C)(C)NC(C)(C)C2)cc1 [YYA‐021]
Percentage of motility inhibition 0 h [1]: 44% | Percentage of motility inhibition 24 h [2]: 39%

O.O=C(O)[C@@H]1[C@H]2C[C@H]3c4[nH]c5ccccc5c4CCN3C[C@@H]2CC[C@@H]1O [Yohimbic acid (hydrate)]
Percentage of motility inhibition 0 h [1]: 16% | Percentage of motility inhibition 24 h [2]: 0%

COC(=O)[C@@H]1[C@H]2C[C@H]3c4[nH]c5ccccc5c4CCN3C[C@@H]2CC[C@@H]1O.Cl [Yohimbine (Hydrochloride)]
Percentage of motility inhibition 0 h [1]: 24% | Percentage of motility inhibition 24 h [2]: 0%

C[C@H]1CC[C@@H]2N(C1)C[C@H]1[C@@H]3C[C@H]4[C@@H](CC(=O)[C@H]5C[C@H](O)CC[C@@]54C)[C@@H]3CC[C@H]1[C@]2(C)O [Yubeinine]
Percentage of motility inhibition 0 h [1]: 13% | Percentage of motility inhibition 24 h [2]: 0%

C[C@@H]1CC[C@@]2(OC1)O[C@H]1C[C@H]3[C@@H]4CC=C5C[C@@H](O[C@@H]6O[C@H](CO)[C@@H](O[C@@H]7O[C@H](CO)[C@@H](O)[C@H](O[C@@H]8O[C@H](CO)[C@@H](O)[C@H](O)[C@H]8O)[C@H]7O)[C@H](O)[C@H]6O[C@@H]6O[C@@H](C)[C@H](O)[C@@H](O)[C@H]6O)CC[C@]5(C)[C@H]4CC[C@]3(C)[C@H]1[C@@H]2C [Zingiberen Newsaponin]
Percentage of motility inhibition 0 h [1]: 0% | Percentage of motility inhibition 24 h [2]: 60%

C[C@@H]1CC[C@]2(C(=O)O)CC[C@]3(C)C(=CC[C@@H]4[C@@]5(C)CC[C@H](O[C@@H]6OC[C@H](O)[C@H](O)[C@H]6O)C(C)(C)[C@@H]5CC[C@]43C)[C@@H]2[C@]1(C)O [Ziyuglycoside II]
Percentage of motility inhibition 0 h [1]: 11% | Percentage of motility inhibition 24 h [2]: 14%

C[C@@H]1CC[C@]2(C(=O)O[C@@H]3O[C@H](CO)[C@@H](O)[C@H](O)[C@H]3O)CC[C@]3(C)C(=CC[C@@H]4[C@@]5(C)CC[C@H](O[C@@H]6OC[C@H](O)[C@H](O)[C@H]6O)C(C)(C)[C@@H]5CC[C@]43C)[C@@H]2[C@]1(C)O [Ziyuglycoside I]
Percentage of motility inhibition 0 h [1]: 0% | Percentage of motility inhibition 24 h [2]: 6%

C=C/C(C)=C/C=C/C(C)=C/C=C1/C(C)=CCCC1(C)C [all-trans-Anhydro Retinol]
Percentage of motility inhibition 0 h [1]: 61% | Percentage of motility inhibition 24 h [2]: 58%

C/C=C/c1cc(OC)c(OC)cc1OC [alpha-Asarone]
Percentage of motility inhibition 0 h [1]: 49% | Percentage of motility inhibition 24 h [2]: 29%

CC(C)=CCC[C@](C)(O)[C@@H]1CC=C(C)CC1 [alpha-Bisabolol]
Percentage of motility inhibition 0 h [1]: 1% | Percentage of motility inhibition 24 h [2]: 6%

CC1(C)CC[C@]2(C)CC[C@]3(C)C(=CC[C@@H]4[C@@]5(C)CC[C@@H](O)[C@](C)(C(=O)O)[C@@H]5CC[C@]43C)[C@@H]2C1 [alpha-Boswellic acid]
Percentage of motility inhibition 0 h [1]: 34% | Percentage of motility inhibition 24 h [2]: 28%

COc1cc2oc3cc(O)c(OC)c(CC=C(C)C)c3c(=O)c2c(O)c1CC=C(C)C [beta‐Mangostin]
Percentage of motility inhibition 0 h [1]: 30% | Percentage of motility inhibition 24 h [2]: 0%

C=C(C)[C@H]1C=C[C@@](C)(O)CC1 [cis-Isolimonenol]
Percentage of motility inhibition 0 h [1]: 2% | Percentage of motility inhibition 24 h [2]: 30%

CC/C=C\CC1=C(C)CCC1=O [cis‐Jasmone]
Percentage of motility inhibition 0 h [1]: 10% | Percentage of motility inhibition 24 h [2]: 9%

S=C=Nc1ccc(N=C=S)cc1 [p‐Phenylene diisothiocyanate]
Percentage of motility inhibition 0 h [1]: 2% | Percentage of motility inhibition 24 h [2]: 9%

CNCC(O)c1ccc(O)cc1 (stereo not shown) [p‐Synephrine]
Percentage of motility inhibition 0 h [1]: 13% | Percentage of motility inhibition 24 h [2]: 0%

C/C(=C\CNc1ncnc2c1ncn2[C@@H]1O[C@H](CO)[C@@H](O)[C@H]1O)CO [trans‐Zeatinriboside]
Percentage of motility inhibition 0 h [1]: 9% | Percentage of motility inhibition 24 h [2]: 0%

C/C1=C\CC/C(C)=C/CC(C)(C)/C=C/C1 [α-Humulene]
Percentage of motility inhibition 0 h [1]: 11% | Percentage of motility inhibition 24 h [2]: 55%

Cc1c(C)c2c(c(C)c1O)CC[C@@](C)(CCC[C@H](C)CCC[C@H](C)CCCC(C)C)O2 [α-Vitamin E]
Percentage of motility inhibition 0 h [1]: 53% | Percentage of motility inhibition 24 h [2]: 11%

CC1=C(/C=C/C(C)=C/C=C/C(C)=C/C=C/C=C(C)/C=C/C=C(\C)C=O)C(C)(C)CCC1 [β-Apo-8'-carotenal]
Percentage of motility inhibition 0 h [1]: 12% | Percentage of motility inhibition 24 h [2]: 1%

C=C(CCC=C(C)C)[C@@H]1CC=C(C)CC1 [β-Bisabolene]
Percentage of motility inhibition 0 h [1]: 8% | Percentage of motility inhibition 24 h [2]: 57%

CC1=C(CO)C(C)(C)CCC1 [β-Cyclogeraniol]
Percentage of motility inhibition 0 h [1]: 15% | Percentage of motility inhibition 24 h [2]: 48%

C=C[C@]1(C)CC[C@@H](C(=C)C)C[C@H]1C(=C)C [β-Elemene]
Percentage of motility inhibition 0 h [1]: 9% and 7%

COc1ccc(-c2oc3c4c(cc(O)c3c(=O)c2O)OC(C)(C)CC4)cc1 [β‐Anhydroicaritin]
Percentage of motility inhibition 0 h [1]: 5% | Percentage of motility inhibition 24 h [2]: 16%

N[C@@H](CCl)C(=O)O [β‐Chloro‐L‐alanine]
Percentage of motility inhibition 0 h [1]: 27% | Percentage of motility inhibition 24 h [2]: 7%

(+)-Catechin hydrate
Percentage of motility inhibition 0 h [1]: 12% and 8%

(+)‐Sparteine
Percentage of motility inhibition 0 h [1]: 5% | Percentage of motility inhibition 24 h [2]: 13%

(+)‐Sparteine (sulfate pentahydrate)
Percentage of motility inhibition 0 h [1]: 0% | Percentage of motility inhibition 24 h [2]: 0%

(-)-Huperzine A
Percentage of motility inhibition 24 h [2]: 7% and 15%

(±)-Huperzine A
Percentage of motility inhibition 0 h [1]: 0% | Percentage of motility inhibition 24 h [2]: 16%

(±)‐10‐Hydroxycamptothecin
Percentage of motility inhibition 0 h [1]: 0% | Percentage of motility inhibition 24 h [2]: 0%

(±)‐Naringenin
Percentage of motility inhibition 0 h [1]: 0% | Percentage of motility inhibition 24 h [2]: 18%

(‐)‐Alkannin
Percentage of motility inhibition 0 h [1]: 12% | Percentage of motility inhibition 24 h [2]: 7%

(‐)‐Epicatechin gallate
Percentage of motility inhibition 0 h [1]: 5% | Percentage of motility inhibition 24 h [2]: 8%

(‐)‐Epigalloca techin
Percentage of motility inhibition 0 h [1]: 3% | Percentage of motility inhibition 24 h [2]: 0%

(‐)‐Gallocatechin gallate
Percentage of motility inhibition 0 h [1]: 60% | Percentage of motility inhibition 24 h [2]: 5%

(‐)‐Sparteine
Percentage of motility inhibition 0 h [1]: 0% | Percentage of motility inhibition 24 h [2]: 4%

(−)-Myrtenal
Percentage of motility inhibition 0 h [1]: 21% | Percentage of motility inhibition 24 h [2]: 14%

Alisol B 23-acetate
Percentage of motility inhibition 0 h [1]: 0% | Percentage of motility inhibition 24 h [2]: 2%

Alpinetin
Percentage of motility inhibition 0 h [1]: 1% | Percentage of motility inhibition 24 h [2]: 14%

Amarogentin
Percentage of motility inhibition 0 h [1]: 2% | Percentage of motility inhibition 24 h [2]: 8%

Aprotinin
Percentage of motility inhibition 0 h [1]: 4% | Percentage of motility inhibition 24 h [2]: 9%

Asiaticoside
Percentage of motility inhibition 0 h [1]: 6% | Percentage of motility inhibition 24 h [2]: 0%

Astragaloside I
Percentage of motility inhibition 0 h [1]: 13% | Percentage of motility inhibition 24 h [2]: 23%

Avermectin B1 [reference compound]
Inhibition (%) 110 μM (0 h): 81 ± 1% | Inhibition (%) 110 μM (24 h): 42 ± 1% | Percentage of motility inhibition 24 h [2]: 41%

Bacopaside II
Percentage of motility inhibition 0 h [1]: 7% | Percentage of motility inhibition 24 h [2]: 9%

Bavachinin
Percentage of motility inhibition 0 h [1]: 0% | Percentage of motility inhibition 24 h [2]: 2%

Benzalkonium chloride
Percentage of motility inhibition 0 h [1]: 50% | Percentage of motility inhibition 24 h [2]: 58%

Brusatol
Percentage of motility inhibition 0 h [1]: 48% | Percentage of motility inhibition 24 h [2]: 37%

Bulleyaconitine A
Percentage of motility inhibition 0 h [1]: 26% | Percentage of motility inhibition 24 h [2]: 26%

Capreomycin (sulfate)
Percentage of motility inhibition 0 h [1]: 12% | Percentage of motility inhibition 24 h [2]: 0%

Capsaicin β‐D‐glucopyrano side
Percentage of motility inhibition 0 h (110 µM): 3% | Percentage of motility inhibition 24 h (110 µM): 0%

Clinodiside A
Percentage of motility inhibition 0 h [1]: 1% | Percentage of motility inhibition 24 h [2]: 0%

Colistin (sulfate)
Percentage of motility inhibition 0 h [1]: 14% | Percentage of motility inhibition 24 h [2]: 0%

Corylin
Percentage of motility inhibition 0 h [1]: 25% | Percentage of motility inhibition 24 h [2]: 15%

Cucurbitacin B
Percentage of motility inhibition 0 h [1]: 5% | Percentage of motility inhibition 24 h [2]: 0%

Cycleanine
Percentage of motility inhibition 0 h [1]: 4% | Percentage of motility inhibition 24 h [2]: 4%

Dictamine
Percentage of motility inhibition 0 h (110 µM): 0% | Percentage of motility inhibition 24 h (110 µM): 20%

Diniconazole
Percentage of motility inhibition 0 h [1]: 19% | Percentage of motility inhibition 24 h [2]: 5%

Dryocrassin ABBA
Percentage of motility inhibition 0 h [1]: 12% | Percentage of motility inhibition 24 h [2]: 18%

Echinocystic acid
Percentage of motility inhibition 0 h [1]: 45% | Percentage of motility inhibition 24 h [2]: 35%

Enfuvirtide
Percentage of motility inhibition 0 h (0 h, 110 μM): 36% | Percentage of motility inhibition 24 h (24 h, 110 µM): 30%

Engeletin
Percentage of motility inhibition 0 h [1]: 11% | Percentage of motility inhibition 24 h [2]: 9%

Epimedin A
Percentage of motility inhibition 0 h [1]: 13% | Percentage of motility inhibition 24 h [2]: 13%

Eprinomectin [reference compound]
Inhibition (%) 110 μM (0 h): 91 ± 3% | Inhibition (%) 110 μM (24 h): 92 ± 3% | Percentage of motility inhibition 0 h [1]: 96% | Percentage of motility inhibition 24 h [2]: 86%

Escin
Percentage of motility inhibition 24 h [2]: 8% and 6%

Evocarpine
Percentage of motility inhibition 0 h [1]: 8% | Percentage of motility inhibition 24 h [2]: 20%

Evodiamine
Percentage of motility inhibition 0 h [1]: 0% | Percentage of motility inhibition 24 h [2]: 23%
